Experimental findings from US20260083708A1, “IL-17 MODULATORS AND USES THEREOF” (NNOCARE PHARMA INC., priority 2024, published 2026) are described below.

The structures appear in SMILES notation.

The target of one test is T1, IL-17AA and IL-17RA (Homo sapiens, UniProt Q16552).
T1 construct: purchased Sino Biological 12047-H07B (IL-17AA); 10895-H02H (IL-17RA)
T1 sequence (Q16552 24-155): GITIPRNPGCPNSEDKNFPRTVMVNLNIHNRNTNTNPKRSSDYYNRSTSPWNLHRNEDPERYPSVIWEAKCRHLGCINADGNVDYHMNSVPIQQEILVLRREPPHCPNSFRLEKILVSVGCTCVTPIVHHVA
Briefly: Competitive inhibition of human IL-17AA and IL-17RA binding (HTRF). Conditions: recombinant IL-17AA (His-tag) and IL-17RA (hFc-tag); read-out: IC50 for Inhibiting IL-AA/IL-RA Binding. The protocol: Example 42. Competitive Inhibition of Human IL-17AA and IL-17RA Binding
Recombinant IL-17AA (His-tag, Catalog Number 12047-H07B) and IL-17RA (hFc-tag, Catalog Number 10895-H02H) were purchased from Sino Biological. In the experiment, 10 μL of IL-17AA (1 nM) or IL-17RA (1 nM) was added to 10 μL of anti-6His-Tb (0.4 nM, Revvity, Catalog Number 61HISTLF) or anti-human IgG-d2 (1 μg/mL, anti-human IgG-d2, Revvity, Catalog Number 61HFCDAF), respectively and incubated at room temperature for 1 hour. Compounds were serially diluted starting from 10 μM. 5 μL of each compound solution was incubated with 5 μL of a mixture of IL-17AA and anti-6His-Tb at room temperature for 2 hours. After pre-incubation, to which was added 10 μL of a mixture of IL-17RA and anti-human IgG-d2, and incubation was continued for additional 20 minutes. Subsequently, a microplate reader (Envision, PerkinElmer) was used to detect fluorescence intensity at 615 nm and 665 nm, and the ratio of intensity thereof indicates the degree of IL-17AA and IL-17RA interaction. The ratio of intensity in the absence of tested compound was the highest value of binding between IL-17AA and IL-17RA, and the ratio of intensity in the absence of IL-17AA was the lowest value.
(§1) Therefore, the percentage of inhibition of tested compound was calculated as
Experimental results were analyzed using XLfit (IDBS) for 4-parameter nonlinear fitting analysis, to provide the IC50 value for each tested compound (Table 1).
On the technique in general: In TR-FRET formats the signal depends on donor and acceptor labels being close together.

Test [1] has as its system IL-17AA-induced IL-17 signaling pathway. The test can be described thus: Inhibition of IL-17AA-induced IL-17 signaling pathway in HEK-Blue IL-17 reporter cells (SEAP). Type of test: cell-based. Conditions: Homo sapiens; HEK-Blue IL-17 cells, IL-17AA 2.5 ng/mL, 20 hours; read-out: IC50 for Inhibiting IL-AA Signaling.
From the text: Example 43. Inhibition of IL-17AA-Induced IL-17 Signaling Pathway
(§2) Interleukin-17 (IL-17) reporter cell line (HEK-Blue IL-17, InvivoGen, Catalog Number hkb-i117) is created by genetically engineering human IL-17RA/IL-17RC heterodimeric receptor and downstream adapter protein ACT1 into human embryonic kidney 293 cells (HEK293). These cells also express secreted embryonic alkaline phosphatase (SEAP) reporter gene induced by NF-κB and AP-1. Therefore, IL-17AA can activate NF-κB and AP-1 signaling pathways inside the cells by binding to IL-17RA/RC on cell membrane, leading to expression of SEAP protein. After a colorimetric reaction between SEAP protein and Quanti-Blue solution, the absorbance at 620 nm is measured using a microplate reader (BioTek H1M, Agilent, Catalog Number SH1M-SN) to determine IL-17AA-activated signaling pathway.
(§3) In the experiment, HEK-Blue IL-17 cells were cultured at 37° C. under 5% CO2 conditions using the recommended medium from InvivoGen's instruction. Compounds were serially diluted starting from 10 μM. 4 μL of each compound solution was added to 32 μL of cells (10,000 cells) at 37° C. for 1 hour. After pre-incubation, 4 μL of IL-17AA with a final concentration of 2.5 ng/mL (Sino Biological, Catalog Number 12047-HNAS) was added to the cells, and incubation was continued for additional 20 hours. After incubation, 5 μL of cell culture supernatant was added to 45 μL of Quanti-Blue for the colorimetric reaction. The group without tested compound had the highest absorbance at 620 nm, and the group without IL-17AA had the lowest absorbance at 620 nm.
as §1
(§4) Experimental results were analyzed using XLfit (IDBS) for 4-parameter nonlinear fitting analysis to provide the IC50 value for each tested compound (Table 1).

For test [2], the system named is IL-17AF-induced IL-17 signaling pathway. The test can be described thus: Inhibition of IL-17AF-induced IL-17 signaling pathway. Type of test: cell-based. Conditions: Homo sapiens; IL-17AF used instead of IL-17AA; read-out: IC50 for Inhibiting IL-AF Signaling.
From the text: as §2, §3, §1, §4
Example 44. Inhibition of IL-17AF-Induced IL-17 Signaling Pathway
The same experimental procedure to Example […] was followed where IL-17AF was used instead of IL-17AA.

Regarding `CCC(=O)N[C@@H](c1nncn1CC1CC1)[C@@H](C)c1ccc(NC(=O)[C@@H](NC(=O)c2ccnn2CC)C(C2CC2)C2CC2)c(F)c1` [Compound 1, N-((S)-1,1-dicyclopropyl-3-((4-((1R,2S)-1-(4-(cyclopropylmethyl)-4H-1,2,4-triazol-3-yl)-1-propionamidopropan-2-yl)-2-fluorophenyl)amino)-3-oxopropan-2-yl)-1-ethyl-1H-pyrazole-5-carboxamide], the IC50 at IL-17AA and IL-17RA stood at 27 nM; in test [1], 13 nM; in test [2], 49 nM.

`CCn1nccc1C(=O)N[C@H](C(=O)Nc1ccc([C@H](C)[C@@H](NC(C)=O)c2nncn2CC2CC2)cc1F)C(C1CC1)C1CC1` [Compound 2, N-((S)-1-((4-((1R,2S)-1-acetamido-1-(4-(cyclopropylmethyl)-4H-1,2,4-triazol-3-yl)propan-2-yl)-2-fluorophenyl)amino)-3,3-dicyclopropyl-1-oxopropan-2-yl)-1-ethyl-1H-pyrazole-5-carboxamide]: the IC50 came out at 12 nM at IL-17AA and IL-17RA; 50 nM in test [1]; 99 nM in test [2].

For `CCn1nccc1C(=O)N[C@H](C(=O)Nc1ccc([C@H](C)[C@@H](NC(=O)COC)c2nncn2CC2CC2)cc1F)C(C1CC1)C1CC1` [Compound 3, N-((S)-1,1-dicyclopropyl-3-((4-((1R,2S)-1-(4-(cyclopropylmethyl)-4H-1,2,4-triazol-3-yl)-1-(2-methoxyacetamido)propan-2-yl)-2-fluorophenyl)amino)-3-oxopropan-2-yl)-1-ethyl-1H-pyrazole-5-carboxamide], the IC50 at IL-17AA and IL-17RA was 7.3 nM; in test [1], 4.1 nM; in test [2], 25 nM.

On to `COCC(=O)N[C@@H](c1nncn1CC1CC1)[C@@H](C)c1ccc(NC(=O)[C@@H](NC(=O)c2ccnn2C(C)C)C(C2CC2)C2CC2)c(F)c1` [Compound 4, N-((S)-1,1-dicyclopropyl-3-((4-((1R,2S)-1-(4-(cyclopropylmethyl)-4H-1,2,4-triazol-3-yl)-1-(2-methoxyacetamido)propan-2-yl)-2-fluorophenyl)amino)-3-oxopropan-2-yl)-1-isopropyl-1H-pyrazole-5-carboxamide], for which the IC50 at IL-17AA and IL-17RA was determined as 10 nM; in test [1] it was 17 nM; in test [2] it was 20 nM.

`CCn1nccc1C(=O)N[C@H](C(=O)Nc1ccc([C@H](C)[C@@H](NC(=O)COC)c2nncn2C)cc1F)C(C1CC1)C1CC1` [Compound 6, N-((S)-1,1-dicyclopropyl-3-((2-fluoro-4-((1R,2S)-1-(2-methoxyacetamido)-1-(4-methyl-4H-1,2,4-triazol-3-yl)propan-2-yl)phenyl)amino)-3-oxopropan-2-yl)-1-ethyl-1H-pyrazole-5-carboxamide]: the IC50 on IL-17AA and IL-17RA came out at 66 nM; in test [1] it was 146 nM; in test [2], 516 nM.

In the case of `COCC(=O)N[C@@H](c1nncn1CC1CC1)[C@@H](C)c1ccc(NC(=O)[C@@H](NC(=O)C(F)(F)c2ccc(OC)nc2)C(C2CC2)C2CC2)c(F)c1` [Compound 7, (S)-3,3-dicyclopropyl-N-(4-((1R,2S)-1-(4-(cyclopropylmethyl)-4H-1,2,4-triazol-3-yl)-1-(2-methoxyacetamido)propan-2-yl)-2-fluorophenyl)-2-(2,2-difluoro-2-(6-methoxypyridin-3-yl)acetamido)propanamide], the IC50 turned out to be 5.2 nM on IL-17AA and IL-17RA; 3.9 nM in test [1]; 8.9 nM in test [2].

In the case of `COCC(=O)N[C@@H](c1nncn1CC1CC1)[C@@H](C)c1ccc(NC(=O)[C@@H](NC(=O)COc2cc(C(F)F)on2)C(C2CC2)C2CC2)c(F)c1` [Compound 8], the IC50 at IL-17AA and IL-17RA is 13 nM; in test [1], 35 nM; in test [2], 73 nM.
